Results reported in PMC12040169 (PLOS Biology, 2025).

Assay: in vitro
Settings: human, hela cells, % viability

Q: For `O=C(COc1cccnc1)N1CCN(c2ccccc2)CC1` [CBK200210], which viability at 28.5 h, 10 µM is on record?
A: 106%

Q: With `CN1CCC(C(=O)N2CCN(c3ccccc3)CC2)CC1` [CBK200211] as the compound, how does the viability at 28.5 h, 10 µM read?
A: 93.5%

Q: Which viability at 28.5 h, 10 µM does the source give for `Cc1cc2ncn(CC(=O)NCc3ccccc3)c2cc1C` [CBK200213] here?
A: 104%

Q: With `O=C(CN1CCOCC1)N1CCN(CCc2ccccc2)CC1` [CBK200215] as the compound, how does the viability at 28.5 h, 10 µM read?
A: 91.4%

Q: For `CN1CCC(C(=O)N2CCN(CCc3ccccc3)CC2)CC1` [CBK200216], which viability at 28.5 h, 10 µM is on record?
A: 103%

Q: Which viability at 28.5 h, 10 µM does the source give for `O=C(NC1CCCC1)c1ccc2nccnc2c1` [CBK200217] here?
A: 102%

Q: With `Cc1ccc(NC(=O)c2cnc3ccccc3n2)c(C)n1` [CBK200218] as the compound, how does the viability at 28.5 h, 10 µM read?
A: 97.7%

Q: Which viability at 28.5 h, 10 µM does the source give for `Cc1cc2ncn(CC(=O)Nc3c(C)noc3C)c2cc1C` [CBK200222] here?
A: 79.5%

Q: For `O=C(c1cncnc1)N1Cc2ccccc2C1` [CBK200223], which viability at 28.5 h, 10 µM is on record?
A: 106%

Q: Which viability at 28.5 h, 10 µM does the source give for `O=C(c1cnccn1)N1CCN(CCc2ccccc2)CC1` [CBK200224] here?
A: 101%

Q: Which viability at 28.5 h, 10 µM does the source give for `O=C(c1csnn1)N1CCN(CCc2ccccc2)CC1` [CBK200228] here?
A: 96.6%

Q: With `CCOc1ccsc1C(=O)N1CCN(CCc2ccccc2)CC1` [CBK200229] as the compound, how does the viability at 28.5 h, 10 µM read?
A: 91.5%

Q: For `O=C(c1cscn1)N1CCN(CCc2ccccc2)CC1` [CBK200230], which viability at 28.5 h, 10 µM is on record?
A: 106%

Q: For `C[C@@H]1CN(C(=O)c2cn(C)c3ccccc23)C[C@H](C)O1` [CBK200235], which viability at 28.5 h, 10 µM is on record?
A: 88.9%

Q: For `O=C(NC1CCCC1)c1ccnc2ccccc12` [CBK200237], which viability at 28.5 h, 10 µM is on record?
A: 92.6%

Q: With `Cc1cc(C(=O)NC2CCCC2)n[nH]1` [CBK200240] as the compound, how does the viability at 28.5 h, 10 µM read?
A: 94.2%

Q: With `O=C(OCCN1CCOCC1)N1CCN(c2ccccc2)CC1` [CBK200242] as the compound, how does the viability at 28.5 h, 10 µM read?
A: 90.3%

Q: With `CCN1CCN(C(=O)c2c[nH]c3ccccc23)CC1` [CBK200245] as the compound, how does the viability at 28.5 h, 10 µM read?
A: 103%

Q: For `CCN1CCN(C(=O)c2cccc3[nH]ccc23)CC1` [CBK200246], which viability at 28.5 h, 10 µM is on record?
A: 110%

Q: With `CCOc1ccsc1C(=O)N1CCN(CC)CC1` [CBK200250] as the compound, how does the viability at 28.5 h, 10 µM read?
A: 125%

Q: For `CCN1CCN(C(=O)c2c(-c3ccccc3)noc2C)CC1` [CBK200251], which viability at 28.5 h, 10 µM is on record?
A: 96.5%

Q: For `CCN1CCN(C(=O)Cc2ccc(N(C)C)cc2)CC1` [CBK200253], which viability at 28.5 h, 10 µM is on record?
A: 82.2%

Q: For `O=C(NC1Cc2ccccc2C1)c1cncnc1` [CBK200262], which viability at 28.5 h, 10 µM is on record?
A: 119%

Q: Which viability at 28.5 h, 10 µM does the source give for `O=C(c1cnc2ccccc2n1)N1CCC(F)CC1` [CBK200264] here?
A: 93.4%

Q: With `CN1CCN(c2ccc(C(=O)N3CCC(F)CC3)cc2)CC1` [CBK200265] as the compound, how does the viability at 28.5 h, 10 µM read?
A: 109%

Q: With `Cc1cc2ncn(CC(=O)N3CCC(F)CC3)c2cc1C` [CBK200266] as the compound, how does the viability at 28.5 h, 10 µM read?
A: 104%

Q: For `O=C(c1cncnc1)N1CCc2ccccc21` [CBK200272], which viability at 28.5 h, 10 µM is on record?
A: 102%

Q: For `O=C(Cc1c[nH]c2ccccc12)N1CCC(F)CC1` [CBK200274], which viability at 28.5 h, 10 µM is on record?
A: 118%

Q: With `O=C(CCc1cccnc1)N1CCC(F)CC1` [CBK200275] as the compound, how does the viability at 28.5 h, 10 µM read?
A: 103%

Q: Which viability at 28.5 h, 10 µM does the source give for `Cc1cc(C(=O)N2CCC(F)CC2)n[nH]1` [CBK200277] here?
A: 109%

Q: With `O=C(c1cccnc1)N1CCc2ccccc21` [CBK200279] as the compound, how does the viability at 28.5 h, 10 µM read?
A: 121%

Q: Which viability at 28.5 h, 10 µM does the source give for `O=C(c1ccnc2ccccc12)N1CCc2ccccc21` [CBK200283] here?
A: 103%

Q: For `O=C(c1ccc[nH]1)N1CCc2ccccc21` [CBK200285], which viability at 28.5 h, 10 µM is on record?
A: 72.6%

Q: Which viability at 28.5 h, 10 µM does the source give for `CN1CCN(CCOC(=O)N2CCSCC2)CC1` [CBK200288] here?
A: 94.7%

Q: Which viability at 28.5 h, 10 µM does the source give for `Cc1ccc(C(=O)Nc2ccc(C)nc2C)cn1` [CBK200289] here?
A: 89.6%

Q: Which viability at 28.5 h, 10 µM does the source give for `Cc1ccc(NC(=O)c2cnc3ccccc3c2)c(C)n1` [CBK200290] here?
A: 99.1%

Q: Which viability at 28.5 h, 10 µM does the source give for `Cc1ccc(NC(=O)Cc2ccc(N(C)C)cc2)c(C)n1` [CBK200295] here?
A: 104%

Q: For `Cc1ccc(NC(=O)c2nc3ccccc3[nH]2)c(C)n1` [CBK200296], which viability at 28.5 h, 10 µM is on record?
A: 94.4%

Q: Which viability at 28.5 h, 10 µM does the source give for `Cc1noc(C)c1NC(=O)c1ccccn1` [CBK200299] here?
A: 95.6%

Q: Which viability at 28.5 h, 10 µM does the source give for `COc1ccc(C(=O)Nc2c(C)noc2C)c(OC)n1` [CBK200300] here?
A: 104%

Q: With `Cc1noc(C)c1NC(=O)c1n[nH]c2ccccc12` [CBK200301] as the compound, how does the viability at 28.5 h, 10 µM read?
A: 104%

Q: Which viability at 28.5 h, 10 µM does the source give for `Cc1noc(C)c1NC(=O)c1cccn1C` [CBK200304] here?
A: 101%

Q: Which viability at 28.5 h, 10 µM does the source give for `Cc1noc(C)c1NC(=O)c1c(C)noc1C` [CBK200305] here?
A: 96.4%

Q: For `Cc1noc(C)c1NC(=O)c1cnccc1C(F)(F)F` [CBK200306], which viability at 28.5 h, 10 µM is on record?
A: 99.1%

Q: For `COc1ncccc1C(=O)Nc1c(C)noc1C` [CBK200307], which viability at 28.5 h, 10 µM is on record?
A: 103%

Q: For `Cc1noc(C)c1NC(=O)c1ccc2ncccc2c1` [CBK200308], which viability at 28.5 h, 10 µM is on record?
A: 104%

Q: Which viability at 28.5 h, 10 µM does the source give for `Cc1noc(C)c1NC(=O)c1nccc2ccccc12` [CBK200310] here?
A: 93.3%

Q: Which viability at 28.5 h, 10 µM does the source give for `Cc1noc(C)c1NC(=O)c1cc2ccccc2n1C` [CBK200311] here?
A: 108%

Q: Which viability at 28.5 h, 10 µM does the source give for `Cc1noc(C)c1NC(=O)c1cn(C)c2ccccc12` [CBK200312] here?
A: 87.3%

Q: For `Cc1nc(C)c(C(=O)Nc2c(C)noc2C)s1` [CBK200313], which viability at 28.5 h, 10 µM is on record?
A: 105%

Q: With `Cc1noc(C)c1NC(=O)c1c(-c2ccccc2)noc1C` [CBK200314] as the compound, how does the viability at 28.5 h, 10 µM read?
A: 91.8%

Q: For `COc1ccc(C(=O)N2Cc3ccccc3C2)c(OC)n1` [CBK200317], which viability at 28.5 h, 10 µM is on record?
A: 103%

Q: With `O=C(c1n[nH]c2ccccc12)N1CCc2ccccc2C1` [CBK200330] as the compound, how does the viability at 28.5 h, 10 µM read?
A: 94.4%

Q: With `O=C(c1c[nH]c2ccccc12)N1CCc2ccccc2C1` [CBK200331] as the compound, how does the viability at 28.5 h, 10 µM read?
A: 113%

Q: With `Cn1cc(C(=O)N2CCc3ccccc3C2)c2ccccc21` [CBK200338] as the compound, how does the viability at 28.5 h, 10 µM read?
A: 90%

Q: Which viability at 28.5 h, 10 µM does the source give for `CN(C)c1ccc(CC(=O)N2CCc3ccccc3C2)cc1` [CBK200340] here?
A: 93.7%

Q: For `O=C(c1nc2ccccc2[nH]1)N1CCc2ccccc2C1` [CBK200341], which viability at 28.5 h, 10 µM is on record?
A: 100%

Q: With `O=C(c1cscn1)N1CCc2ccccc2C1` [CBK200342] as the compound, how does the viability at 28.5 h, 10 µM read?
A: 96.6%

Q: Which viability at 28.5 h, 10 µM does the source give for `O=C(Cc1ccccn1)N1CCCc2ccccc21` [CBK200343] here?
A: 105%

Q: Which viability at 28.5 h, 10 µM does the source give for `O=C(CCc1cccnc1)N1CCCc2ccccc21` [CBK200344] here?
A: 100%

Q: Which viability at 28.5 h, 10 µM does the source give for `Cc1nc(C)c(C(=O)N2CCCc3ccccc32)s1` [CBK200345] here?
A: 112%

Q: For `CN(C)c1ccc(CC(=O)N2CCCc3ccccc32)cc1` [CBK200347], which viability at 28.5 h, 10 µM is on record?
A: 83.6%

Q: With `Cc1noc(C)c1C(=O)NC1Cc2ccccc2C1` [CBK200350] as the compound, how does the viability at 28.5 h, 10 µM read?
A: 91.4%

Q: Which viability at 28.5 h, 10 µM does the source give for `O=C(CCc1cccnc1)NC1Cc2ccccc2C1` [CBK200352] here?
A: 97.4%

Q: For `O=C(NC1Cc2ccccc2C1)c1cnccc1C(F)(F)F` [CBK200353], which viability at 28.5 h, 10 µM is on record?
A: 98.6%

Q: With `O=C(NC1Cc2ccccc2C1)c1ccc2ncccc2c1` [CBK200354] as the compound, how does the viability at 28.5 h, 10 µM read?
A: 96.2%

Q: With `O=C(NC1Cc2ccccc2C1)c1ccc2ccccc2n1` [CBK200355] as the compound, how does the viability at 28.5 h, 10 µM read?
A: 81.8%

Q: With `Cc1nc(C)c(C(=O)NC2Cc3ccccc3C2)s1` [CBK200357] as the compound, how does the viability at 28.5 h, 10 µM read?
A: 91.2%

Q: Which viability at 28.5 h, 10 µM does the source give for `O=C(NC1Cc2ccccc2C1)c1nc2ccccc2[nH]1` [CBK200361] here?
A: 102%

Q: With `O=C(NC1Cc2ccccc2C1)c1cscn1` [CBK200363] as the compound, how does the viability at 28.5 h, 10 µM read?
A: 93.5%

Q: Which viability at 28.5 h, 10 µM does the source give for `O=C(CCN1CCCCC1)NC1Cc2ccccc2C1` [CBK200364] here?
A: 98.3%

Q: For `O=C(NCc1ccccc1)c1ccc2[nH]nnc2c1` [CBK200368], which viability at 28.5 h, 10 µM is on record?
A: 86.9%

Q: For `C[C@@H]1CN(C(=O)c2cncn2C)C[C@H](C)O1` [CBK200370], which viability at 28.5 h, 10 µM is on record?
A: 90.3%

Q: For `C[C@@H]1CN(C(=O)c2cscn2)C[C@H](C)O1` [CBK200371], which viability at 28.5 h, 10 µM is on record?
A: 90%
